Holding throughout (conditions): mouse, in vivo
One assay has as its system B. anthracis. Set-up: species or system mouse (Balb/c).
Another assay has as its system E. coli strain TVDL-rat. Also noted: species or system mice.
A further assay relates to B. anthracis spores. Also noted: species or system mouse (Balb/c).

“And” between values parts separate entries of the source, which are not always exact repeats. Identical values can stand only once.

In the case of “poly-(1,6)-β-D-glucopyranosyl (1,3)β-D-glucopyranose [PGG]”, in the assay on B. anthracis, the bacteria-free animals is 86.4% and the “bacterial load in lung of surviving animals” value is 2.6×10^5 CFU/g lung. Besides, the survival rate in the assay on E. coli strain TVDL-rat was 90% and 75% and 70%. In addition, in the assay on B. anthracis spores, the mean survival time was 10.2 days and 11.5 days; the “number of survivors out of 22 mice” value worked out at 19; the percent survivors is recorded as 86.36%; the “survival, data pooled from the two experiments” value is 10.86 days.

Source of the values: patent US8865679B2 (priority 2001, dated 2014).
